# Assay results as given in patent US20150175585A1, “FUSED QUINONIC COMPOUNDS” (CENTRO ATLANTICO DEL MEDICAMENTO S.A (CEAMED, S.A.), priority 2012, published 2015).
# How the values were obtained:
# HEL cells = test: HEL-based MTT cell viability assay; parameters: species or system human; conditions: Homo sapiens, 48 h, read-out: Activity (IC50, reduction of cell viability)
# Procedure: Cell viability was assayed by measuring the mitochondrial reduction of the tetrazolium salt 3-(4,5-methyltiazol-2yl)-2,5diphenyl-tetrazolium bromide] (MTT) (Applichen; A2231,0010) (Mosmann T. J Immunol Methods. 1983 16; 65(1-2):55-63; Chuan Y-C et al 2010. Oncogene. 29 (10), 1531-1542. Cells were seeded in 96-well plates in medium supplemented with 10% FBS (Lonza Cat. No: 14-502F), 2 mM L-Glut (Lonza Cat. No: BE17-605E) and 100 U/ml PEST (Lonza Cat. No: DE17-605E) at a cell density of 5000-20000 cells/well. Cells were seeded at a density according to their exponential growth phase. Vehicle (0.05% DMSO) or drug were added to culture medium at the indicated concentrations (10 to 0.01 microM) during 48 h. Then, MTT (0.3 mg/ml) was added to cells following by incubation for 2-4 h at 37° C. in the dark. The medium was then discarded and the formazan precipitate was solubilized by addition of 20% SDS (Sigma; L-5750) in 0.02N HCl (Panreac; 131020.1611) for 12-16 h. The optical density was measured at 595 nm with the iMark Microplate Reader (BioRad, USA). Data was expressed as percent growth above the level in controls and the results in figures were plotted as means±SEM of each test point from 3 replicates.
# Statistical analysis. The concentration of drug that provokes 50% reduction of cell viability (IC50) was determined by using non-linear regression analysis and data were fitted to a log concentration vs normalized response curve in GraphPad software v5 (San Diego, Calif.).
# STAT5 = STAT5 phosphorylation western blot assay; assay type: cell-based, human; conditions: 10 microM, HEL or K562 cells (table does not say which)
# Procedure: The Human Erythroleukemia cell line HEL and the human Chronic Myeloid Leukemia cell line K562 were cultured in RPM I 1640 medium containing 10% fetal bovine serum (FBS) and 50 U/ml penicillin/50 U/ml streptomycin at 37° C. in a 5% CO2 humidified atmosphere to a density of 300.000 viable cells/mL in presence of WP1066 (positive control of phosphorylation inhibition) (Verstovsek et al., 2008) or CM-363 at concentrations of 1, 5 and 10 μM. Cell culture reagents were all obtained from BioWhittaker® (Lonza, Verniers, Belgium). Cell growth and viability was determined by propidium iodide (fluorescent dye) exclusion method using the Accuchip 4× Counting Kit and the ADAM automatic cell counter (Digital-Bio, NanoEntek, Ic., Washington St, Mass., USA).As a control of unspecific phosphorylation, some cells in each experiment were exposed to vehicle (negative control of phosphorylation inhibition) (0.1% DMSO).
# For total protein extraction, cells were scraped with RIPA 1× lysis buffer (25 mM Tris-HCl pH 7.6, 150 mM NaCl, 1% NP-40, 1% sodium deoxycholate, 0.1% SDS, no. 89900, Thermo Scientific, Rockford, Ill., USA) supplemented with 1× protease and 1× phosphatase inhibitor cocktails (100× Halt™ Protease Inhibitor Cocktail, no. 87786 and 100× Halt Phosphatase Inhibitor Cocktail, no. 78420, both from Thermo Scientific, Rockford, Ill., USA). An aliquot of each extract was preserved for protein quantification by bicinchoninic acid assay (Pierce® BCA Protein Assay Kit, no. 23225, Thermo Scientific, Rockford, Ill., USA).
# Proteins were solubilized in sample buffer containing 0.0625 M Tris-HCl, pH 6.8, 2.3% (wt/vol) SDS, 10% (vol/vol) glycerol, 5% (vol/vol) f3-mercaptoethanol, and 0.001% (wt/vol) bromophenol blue and boiled at 95° C. for 5 min. Equal amounts (50 μg) of each sample were electrophoresed on 8-10% sodium dodecyl sulfate-polyacrylamide gel electrophoresis (SDS-PAGE) and transferred to nitrocellulose membranes (iBlot® Gel Transfer Stacks, Nitrocellulose, no. IB4010-02, Invitrogen, Barcelona, Spain) as described previously (Fernandez, L, et al., Endocrinology, 13, 1815-1824, 1998; B. Guerra et al., J. Neurochem, 91, 99-109, 2004; B. Guerra et al., J. Appl. Physiol., 102, 1786-1792, 2007; B. Guerra et al., J. Appl. Physiol., 111, 715-725, 2011). The nitrocellulose membranes were then removed from the iBlot® Dry GelTransfer Device (no. IB1001EU, Invitrogen, Barcelona, Spain) and placed in a Ponceau S staining solution (0.5% Ponceau S and 1% glacial acetic acid in water) to verify equal loading of protein in the control and treated samples. After the membranes were stained for 5 min, they were rinsed for 2 min and examined. Equal loading of protein was verified, and the membranes were rinsed for an additional 10 min and immunoscreened. Membranes were blocked with 5% blotting grade blocker nonfat dry milk in Tris Buffered Saline with 0.05% Tween 20 (TBST; blotto-blocking buffer) for at least […]) at room temperature. They were washed thrice in TBS with 0.1% Tween 20 (TBST-0.1). Next, the membranes were incubated over night at 4° C. with the appropriate anti-phospho-antibodies (described below) all diluted (1:1000) in 1% bovine serum albumin (BSA)-1% blotto in TBST (BSA-blotto blocking buffer). […] Membranes were stripped of bound antibodies by incubation in stripping buffer (Restore™ Western Blot Stripping Buffer, no. 21059, Thermo Scientific, Rockford, Ill., USA) at room temperature for 30 min with agitation. Membranes were washed for 3×10 min in TBST-0.1, blocked with blotto-blocking buffer for at least 1 h and re-probed with the corresponding anti-total kinase antibodies (described below) all diluted (1:1000) in blotto-blocking buffer. […]
structure (smiles),measurement,setting,value
"N#Cc1ccc(C2C3=C(CCCC3=O)OC3=C2C(=O)c2ccccc2C3=O)cc1 (centres unmarked) [Compound 4, 4-(1,6,11-trioxo-2,3,4,6,11,12-hexahydro-1H-benzo[b]xanthen-12-yl)benzonitrile]",IC50,HEL cells,< 3000 nM
same,Activity (inhibition of STAT5 phosphorylation),STAT5,+++ (+++represents an inhibition at 10 microM > 75%)
